Source: US20250034207A1, “PEPTIDES AND PEPTIDE CONJUGATES FOR TREATING MENTAL DISORDERS” (Kyoto University, priority 2016, published 2025)
No end group written: not given here.

Test system: ddY mice
Experiment: Tail suspension test in mice after oral administration
Type: in vivo
Conditions: for Activity Rating: rating excellent, good, moderate or low from percent reduction of control immobility, 0.3 mg/kg; for % of SEQ ID NO: 1 activity: reduction of control immobility relative to SEQ ID NO:1, 0.3 mg/kg oral, average where tested more than once; for Immobility time for peptides dosed at 0.3 mg/kg as percent of control immobility time, Example 16: Example 16 (retest)
Experimental: The tail suspension test is an experimental method used to screen potential antidepressant drugs (Can et al., 2012, J Vis Exp., 59: e3769). In the test as implemented in the Examples, a test substance is orally administered to mice (ddY mice, males, 24˜30 g) and 30 minutes later the mice are suspended by their tails for six minutes. The amount of time that a mouse is immobile (i.e. is not displaying escape behavior) during the six minutes is measured to provide an immobility time. The administration of anti-depressant drugs such as imipramine reduces immobility time. Therefore, if a reduction of immobility time is observed when testing a test substance, it can be concluded that the test substance has anti-depressant properties. Immobility is considered a despair state, and, therefore, a reduction of immobility time also indicates an increase in motivation (i.e., that the test substance has motivation-increasing properties).

Row | Substance | Activity Rating | % of SEQ ID NO: 1 activity [%] | further results
1 | LSSTQAQQSY-NH2 [SEQ ID NO:36, C-terminal amidated peptide conjugate] | Excellent | 89.12 | Immobility time for peptides dosed at 0.3 mg/kg as percent of control immobility time, Example 6 (0.3 mg/kg oral): 55.27% of control immobility time
2 | WLSSTQAQQSYW (Designed peptide) [SEQ ID NO:39] | Moderate | 18.05 | Immobility time for peptides dosed at 0.3 mg/kg as percent of control immobility time, Example 14 (0.3 mg/kg oral): 90.94% of control immobility time
3 | WLSSTQ (Designed peptide) [SEQ ID NO:40] | Good | 56.36 | Immobility time for peptides dosed at 0.3 mg/kg as percent of control immobility time, Example 14 (0.3 mg/kg oral): 55.34% of control immobility time; Immobility time for peptides dosed at 0.3 mg/kg as percent of control immobility time, Example 16 (0.3 mg/kg oral): 88.09% of control immobility time
4 | LSSTQAQQSYLQGF (Designed peptide) [SEQ ID NO:43] | Low | −19.33 | Immobility time for peptides dosed at 0.3 mg/kg as percent of control immobility time, Example 15 (0.3 mg/kg oral): 109.70% of control immobility time
5 | ESFFLSSTQAQQSY (Designed peptide) [SEQ ID NO:42] | Low | −39.13 | Immobility time for peptides dosed at 0.3 mg/kg as percent of control immobility time, Example 15 (0.3 mg/kg oral): 119.64% of control immobility time
6 | LSSTQAQQS (Designed peptide) [SEQ ID NO:2] | Moderate | 25.28 | Immobility time for peptides dosed at 0.3 mg/kg as percent of control immobility time, Example 3 (FIG. 3A) (0.3 mg/kg oral): 87.31% of control immobility time
7 | STQAQQSY (Designed peptide) [SEQ ID NO:29] | Good | 50.93 | Immobility time for peptides dosed at 0.3 mg/kg as percent of control immobility time, Example 13 (0.3 mg/kg oral): 74.44% of control immobility time
8 | SSTQAQQSY (Designed peptide) [SEQ ID NO:3] | Excellent | 64.81 | Immobility time for peptides dosed at 0.3 mg/kg as percent of control immobility time, Example 3 (FIG. 3A) (0.3 mg/kg oral): 67.47% of control immobility time
9 | FFLSSTQAQQSYLQ (Designed peptide) [SEQ ID NO:44] | Good | 33.91 | Immobility time for peptides dosed at 0.3 mg/kg as percent of control immobility time, Example 15 (0.3 mg/kg oral): 82.98% of control immobility time; Immobility time compared to control (0.3 mg/kg oral, Example 15 (FIG. 11)): decreased
10 | SSTQAQQS (Designed peptide) [SEQ ID NO:28] | Excellent | 82.07 | Immobility time for peptides dosed at 0.3 mg/kg as percent of control immobility time, Example 13 (0.3 mg/kg oral): 60.34% of control immobility time; Immobility time for peptides dosed at 0.3 mg/kg as percent of control immobility time, Example 16 (0.3 mg/kg oral): 57.29% of control immobility time
11 | LSSTQAQQSY (Designed peptide) [SEQ ID NO:1] | Excellent | 100 | Immobility time for peptides dosed at 0.3 mg/kg as percent of control immobility time, Example 1 (0.3 mg/kg oral, Example 1): 44.13% of control immobility time; Immobility time for peptides dosed at 0.3 mg/kg as percent of control immobility time, Example 3 (FIG. 3A) (0.3 mg/kg oral): 42.41% of control immobility time; Immobility time for peptides dosed at 0.3 mg/kg as percent of control immobility time, Example 3 (FIG. 3B) (0.3 mg/kg oral): 64.04% of control immobility time
12 | AQQSY (Designed peptide) [SEQ ID NO:5] | Moderate | 26.16 | Immobility time for peptides dosed at 0.3 mg/kg as percent of control immobility time, Example 3 (FIG. 3B) (0.3 mg/kg oral): 86.87% of control immobility time
13 | AQQSYW (Designed peptide) [SEQ ID NO:41] | Low | 5.32 | Immobility time for peptides dosed at 0.3 mg/kg as percent of control immobility time, Example 14 (0.3 mg/kg oral): 97.33% of control immobility time
14 | LSSTQAQQSW (Designed peptide) [SEQ ID NO:6] | Excellent | 122.71 | Immobility time for peptides dosed at 0.3 mg/kg as percent of control immobility time, Example 6 (0.3 mg/kg oral): 38.41% of control immobility time
15 | LSSTQAQQSYW (Designed peptide) [SEQ ID NO:37] | Excellent | 97.25 | Immobility time for peptides dosed at 0.3 mg/kg as percent of control immobility time, Example 14 (0.3 mg/kg oral): 39.08% of control immobility time; Immobility time for peptides dosed at 0.3 mg/kg as percent of control immobility time, Example 16 (0.3 mg/kg oral): 58.54% of control immobility time
16 | LSSTQ (Designed peptide) [SEQ ID NO:4] | Good | 36.80 | Immobility time for peptides dosed at 0.3 mg/kg as percent of control immobility time, Example 3 (FIG. 3B) (0.3 mg/kg oral): 81.53% of control immobility time
17 | LSSTQAQQ (Designed peptide) [SEQ ID NO:27] | Good | 46.52 | Immobility time for peptides dosed at 0.3 mg/kg as percent of control immobility time, Example 13 (0.3 mg/kg oral): 76.65% of control immobility time
18 | WLSSTQAQQSY (Designed peptide) [SEQ ID NO:38] | Good | 55.25 | Immobility time for peptides dosed at 0.3 mg/kg as percent of control immobility time, Example 14 (0.3 mg/kg oral): 72.27% of control immobility time
19 | LSSTQAQQSF (Designed peptide) [SEQ ID NO:7] | Excellent | 115.46 | Immobility time for peptides dosed at 0.3 mg/kg as percent of control immobility time, Example 6 (0.3 mg/kg oral): 42.05% of control immobility time
